Measurements taken from patent US11453674B2, “Heterocyclic compound, preparation method and use thereof in medicine” (SUZHOU SINOVENT PHARMACEUTICALS CO., LTD., priority 2019, dated 2022).

Key:
CYP2C9 = biological target: T1, CYP2C9 (Homo sapiens, UniProt P11712); assay: Inhibitory effect on CYP2C9 enzyme in microsomes (diclofenac probe); type: in vitro ADME; conditions: microsomes 0.25 mg/mL, diclofenac 10 μM; IC50 higher than that of benzbromarone
T1 construct: from tissue
Method: Example 27: Evaluating the Inhibitory Effects of Compounds on CYP2C9 Enzyme
The assay was performed in 100 mM phosphate buffer in a total volume of 200 μL. The microsome concentration in the reaction system was 0.25 mg/mL, the concentrations of the test compounds were 10, 3.33, 1.11, 0.37, 0.12, 0.04 and 0 μM, the CYP2C9-specific probe substrate and the concentration were diclofenac (10 μM). The mixture was pre-incubated in a 37° C. thermostatic oscillator for 5 min, and a NADPH-generating system (containing 1.3 mM NADP^+, 3.3 mM D(+)-glucopyranose-6-phosphate, […] glucose-6-phosphate dehydrogenase, 3.3 mM MgCl2) was added to start the reaction. After incubation for 10 min, the reaction was terminated by adding an equal volume of acetonitrile. The mixture was vortexed and centrifuged at 13,000 rpm. The resulting supernatant was loaded to LC-MS-MS to determine the content of metabolites. The metabolite of diclofenac specifically obtained by CYP2C9 metabolism pathway is 4-hydroxydiclofenac. Sulfaphenazole was adopted as a specific CYP2C9 inhibitor. In the experiment, analysis was performed by GraphPad Primsm 5.0 to calculate the half maximal inhibitory concentration (IC50 value).

rat hepatocytes = assay: Metabolite study in rat hepatocyte incubation system; type: in vitro ADME; conditions: 180 min incubation, LC-MS
Method: (§1) Example 28: Study on Metabolites of Compound in Human and Rat Hepatocyte Incubation System
(§2) 1. Preparation of Stock and Working Solutions
(§3) Stock solution: A proper amount of test sample powders was dissolved in DMSO or other proper solvents, and the mixture was well mixed to give a stock solution (10 mM). The stock solution was preserved in a refrigerator at 4° C. for later use.
(§4) Working solution: The 10 mM stock solution was diluted to 1 mM working solution using acetonitrile, and well mixed for later use.
(§5) 2. Preparation of Thawing Medium I
(§6) Williams' Medium E, glutamate, HEPES, fetal bovine serum albumin, human recombinant insulin, dexamethasone, and cell separation medium (Percoll™) were mixed in a ratio of 700:10:15:50:1:0.1:300 for use.
(§7) 3. Preparation of Terminating Solution
(§8) An acetonitrile solution containing 0.1% formic acid was prepared as the terminating solution and preserved in a refrigerator at 4° C. for use.
(§9) 4. Isolation and Preparation of Hepatocyte Suspension
(§10) The cryopreserved hepatocytes were thawed in a water bath at 37° C. for about 90 s, and quickly poured into the pre-heated isolating buffer. Residual hepatocytes were washed using the isolating buffer. Cells were combined and mixed well, and centrifuged at room temperature for 5 min at 100×g. The supernatant was discarded and the cells were resuspended using pre-heated William' Medium E. 20 μL of hepatocyte suspension was added into 100 μL of 0.4% Trypan blue. The cells were counted, and a cell viability over 70% was required. The hepatocyte density was adjusted to 1.25×10^6 cells/mL using William' Medium E.
(§11) 5. Incubation and Treatment of Samples
(§12) 1) The test compound working solution was pre-incubated (pre-heated) in a constant-temperature incubator at 37° C. for 10 min. 2 μL of the working solution (1 mM) was pipetted to a cell culture plate containing 160 μL of hepatocyte suspension at 1.25×10^6 cells/mL, and the mixture was well mixed. 38 μL of Williams' Medium E was added. The mixture was well mixed and incubated in an incubator (in a total volume of 200 μL), and the timer was started. For the blank control, […] of Williams' Medium E was added instead of the working solution. For 0-min samples, 400 μL of acetonitrile (containing 0.1% formic acid) was added, followed by the working solution and Williams' Medium E.
(§13) 2) After 180 min of incubation, the samples were measured for the cell viability. Then 400 μL of acetonitrile (containing 0.1% formic acid) solution was added to terminate the reaction.
(§14) 3) After the reaction was terminated, the plate was shaken on a shaker at 300 rpm for 10 min, followed by centrifugation at least 10000×g for at least 10 min. After centrifugation, the supernatant was all transferred to centrifuge tubes and dried with nitrogen.
(§15) 4) The residues were re-dissolved in a suitable solvent, and centrifuged at least 10000×g for at least 15 min at room temperature. The supernatant was transferred to a sample analysis plate for LC-MS analysis.
(§16) 5) The methodology for 7-ethoxycoumarin (30 μM) was the same as that of test samples. Samples of the test compounds after incubation were used for metabolite assay only when the target metabolite was detected in the positive control sample. Otherwise, the above experiment should be repeated.
(§17) 6. Data Acquisition and Analysis […]

human hepatocytes = assay: Metabolite study in human hepatocyte incubation system; type: in vitro ADME; conditions: 180 min incubation, LC-MS
Method: as §1, §2, §3, §4, §5, §6, §7, §8, §9, §10, §11, §12, §13, §14, §15, §16, §17

[1] = tested on: primary human hepatocytes; assay: Cytotoxicity assay on primary human hepatocytes (CellTiter-Glo, 48 h); type: cell-based; conditions: Hepatocyte, cell viability, 48 h incubation
Method: Example 26: Cytotoxicity Assay of Compounds on Primary Human Hepatocytes
Primary human hepatocytes were purchased from Biorecamation IVT. Co., Ltd. (lot no.: AKB/S1391); the components of in vitro culture media of primary human cell and suppliers are as follows:
1. Frozen primary human hepatocytes were thawed, then resuspended in a culture medium containing 10% FBS. The cells were transferred into a 96-well plate, at 8×10^4 cells/well, followed by incubating overnight in an incubator at 5% CO2 at 37° C.;
2. […] The test compounds and control drug were added to wells, at 100 μL/well, to form test compound wells or reference wells, and the culture medium containing 10% FBS was added to wells, at 100 μL/well, as negative control. The cells were incubated in an incubator in the presence of 5% CO2 at 37° C. for 48 h.
3. The primary human hepatocytes were washed with PBS (0.1 M, pH=7.4) twice, and were added with CellTiter-Glo reagent at 100 μL/well. Cell-free wells added with CellTiter-Glo reagent at 100 μL/well served as the blank control. The 96-well plate was shaken on a shaker for 5 min, and then left at room temperature for 10 min.
4. The chemiluminescence values were detected using Victor X4 (Perkin Elmer). The chemiluminescence values of the test compound wells were denoted as F(test compound), the chemiluminescence values of the blank control wells were denoted as F(blank), and the chemiluminescence values of the negative control wells were denoted as F(negative control). The cell viabilities at different concentrations were calculated according to the following formula. Each concentration was measured in triplicate to give the average and the standard deviation.
5. The half maximal inhibitory concentration (IC50) of the test compounds to the primary human hepatocytes were calculated using Prism Graph software.

T1 sequence (P11712 whole entry): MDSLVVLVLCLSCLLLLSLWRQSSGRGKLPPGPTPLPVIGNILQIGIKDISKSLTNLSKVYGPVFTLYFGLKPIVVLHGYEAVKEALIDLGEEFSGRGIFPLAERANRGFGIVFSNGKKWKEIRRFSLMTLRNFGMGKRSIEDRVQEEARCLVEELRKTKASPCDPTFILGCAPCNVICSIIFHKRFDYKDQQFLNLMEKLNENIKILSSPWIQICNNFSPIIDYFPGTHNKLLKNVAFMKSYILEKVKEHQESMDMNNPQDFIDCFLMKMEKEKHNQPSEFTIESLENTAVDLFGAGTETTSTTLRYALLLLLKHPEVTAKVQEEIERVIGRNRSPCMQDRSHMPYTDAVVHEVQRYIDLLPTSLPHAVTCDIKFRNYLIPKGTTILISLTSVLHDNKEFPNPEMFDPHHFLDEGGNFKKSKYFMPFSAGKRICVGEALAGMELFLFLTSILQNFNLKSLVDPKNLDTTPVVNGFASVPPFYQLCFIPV

Row | SMILES | inhibitory effect on CYP enzymes (CYP2C9) (CYP2C9) | toxic metabolites of benzbromarone type (rat hepatocytes) | toxic metabolites of benzbromarone type (human hepatocytes) | IC50 [1]
1 | CCc1nc2ncccn2c1C(=O)c1cc(Br)c(O)c(Br)c1 [Example 20, 2,6-dibromo-4-([2-ethylimidazo[1,2-a]pyrimidin-3-yl]carbonyl) phenol] | very low or no inhibitory effect | not observed | not observed | 
2 | CCc1nc2ncc(F)cn2c1C(=O)c1cc(Br)c(O)c(C#N)c1 [Example 14, 3-bromo-5-(2-ethyl-6-fluoroimidazo[1,2-a]pyrimidine-3-carbonyl)-2-hydroxybenzonitrile] | very low or no inhibitory effect | not observed | not observed | ≥ 1000 µM
3 | CCc1nc2cc(Cl)ncn2c1C(=O)c1cc(Br)c(O)c(Br)c1 [Example 21, (7-chloro-2-ethylimidazo[1,2-f]pyrimidin-3-yl)(3,5-dibromo-4-hydroxyphenyl)methanone] | very low or no inhibitory effect | not observed | not observed | 347 µM
4 | CCc1nc2ncc(C(F)(F)F)cn2c1C(=O)c1cc(Br)c(O)c(Br)c1 [Example 5, (3,5-dibromo-4-hydroxyphenyl)(2-ethyl-6-(trifluoromethyl)imidazo[1,2-a]pyrimidin-3-yl)methanone] | very low or no inhibitory effect | not observed | not observed | 77.8 µM
5 | CCc1nc2ncc(F)cn2c1C(=O)c1cc(Br)c(O)c(Br)c1 [Example 4, (3,5-dibromo-4-hydroxyphenyl)(2-ethyl-6-fluoroimidazo[1,2-a]pyrimidin-3-yl)methanone] | very low or no inhibitory effect | not observed | not observed | 257 µM
